Data on 1 compound can be found in EP2093218A1, “Arylalkyl substituted imidazolidinones” (Fariello, Ruggero, priority 2008, dated 2009).

Marks after values point to notes of the source that are not given here.

The subject of one experiment is PTZ-treated mice. The experiment is described as follows: Chemically induced seizures (pentylenetetrazole, PTZ). Type of experiment: in vivo. The note with it: for % Protection on PTZ induced convulsions: PTZ 90 mg/kg i.p. 30 min after compound, 20 mice. Here is the method:
Seizure-inducer pentylenetetrazole (PTZ) (90 mg/kg i.p.) was administered to mice 30 min after i.p. administration of the test compound.
Compound of Example 1 at the doses of 10 and 30 mg/kg i.p. was able to protect the animals from PTZ-induced convulsions. […]

Another experiment deals with mice. Put plainly: Maximal Electroshock Test (MES). Format: in vivo. The note with it: for MES % Protection from Tonic Extension: 20 mice; for Time of Straightening Reflex Loss: mean of 20 mice. The protocol:
MES seizures were induced by electroconvulsometer (ECT Unit Ugo Basile, Italy). Mice received an electroshock (50 mA at 60 Hz for 0.2 s duration) through intra-corneal electrodes. This current intensity elicited complete tonic extension of the hindlimbs in control mice. The stimulus was applied 30 min or 60 min after intraperitoneal (i.p.) or oral (p.o.) administration of the test compound, respectively. To evaluate the drug effect on the seizure severity, time of Straightening Reflex Loss and the presence of tonic hindlimb extension were selected as the parameters.

[1] abbreviates: 10 mg/kg i.p., stimulus 30 min after administration.
The mark [2] stands for this setting: 30 mg kg^-1 p.o., stimulus 60 min after administration.

In the case of `C[C@H]1C(=O)NC(C)(C)N1Cc1ccc(OCc2cccc(F)c2)cc1` [Example 1, (S)-(-)-1-[4-(3-Fluoro-benzyloxy)-benzyl]-2,2,5-trimethyl-imidazolidin-4-one], the “% Protection on PTZ induced convulsions” value in the experiment on PTZ-treated mice (3 mg/kg i.p.) turned out to be 0%; in the experiment with PTZ-treated mice (10 mg/kg i.p.) it was 40%; with PTZ-treated mice (30 mg/kg i.p.), 90%. In the experiment with PTZ-treated mice (highest dose (30 mg/kg i.p.)), the “protection from PTZ-induced convulsions (in words)” value was “almost complete”. Besides, the figures for the “MES % Protection from Tonic Extension” value in the experiment with mice (setting [1]) and in the experiment on mice (setting [2]) were 50* % and 30%, respectively. Further, the “Time of Straightening Reflex Loss” value amounted to 66.8 ± 9.3 s in the experiment with mice (setting [1]) and 56.8 ± 6.3 s in the experiment on mice (setting [2]). The “anticonvulsant activity in MES test (in words)” value in the experiment on mice (either after i.p. (10 mg/kg) or oral (30 mg/kg) administration) was “significant anticonvulsant activity”.
